Assay [1] addresses T1, Furin (108-574-Tev-Flag-His) enzyme (Homo sapiens, UniProt P09958).
T1 construct: Furin (108-574-Tev-Flag-His) enzyme was expressed and purified from CHO cells; TEV cleavage site (C); FLAG (C); His (C); made in house; host or cells: CHO cells
Briefly: Furin enzyme assay. In kind it is biochemical. The gist of the method:
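Compounds ran as 11-point threefold dilutions (0.00017–10 μM final) against 40 pM furin, purified from CHO cells, for 2 h at room temperature. Buffer: 100 mM HEPES pH7.5 with 1 mM CaCl2 and 0.005% Triton X-100. Envision readout. Four-parameter curve gives pXC50.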

In assay [2] the target is T2, furin (endogenous protease) in U20S cells (Homo sapiens, UniProt P09958).
T2 construct: the endogenous protease cleaves GFP; endogenous in cells; host or cells: U2OS cells transduced with a BacMam reporter
Briefly: Furin cell-based assay (image-based, Golgi-targeted GFP with BMP10 furin/PCSK cleavage site).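 Further: Read-out is mean GFP fluorescence of Golgi puncta per cell by high-content imaging, retained when furin inhibited, over an eleven-point 0.00017–10 µM series, four-parameter fit.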 As to conditions: 24-hour incubation, read-out: furin golgi cell pXC50 (converted).

Structures can show the parent of a compound that is named as a salt.

T1 sequence (P09958 108-574): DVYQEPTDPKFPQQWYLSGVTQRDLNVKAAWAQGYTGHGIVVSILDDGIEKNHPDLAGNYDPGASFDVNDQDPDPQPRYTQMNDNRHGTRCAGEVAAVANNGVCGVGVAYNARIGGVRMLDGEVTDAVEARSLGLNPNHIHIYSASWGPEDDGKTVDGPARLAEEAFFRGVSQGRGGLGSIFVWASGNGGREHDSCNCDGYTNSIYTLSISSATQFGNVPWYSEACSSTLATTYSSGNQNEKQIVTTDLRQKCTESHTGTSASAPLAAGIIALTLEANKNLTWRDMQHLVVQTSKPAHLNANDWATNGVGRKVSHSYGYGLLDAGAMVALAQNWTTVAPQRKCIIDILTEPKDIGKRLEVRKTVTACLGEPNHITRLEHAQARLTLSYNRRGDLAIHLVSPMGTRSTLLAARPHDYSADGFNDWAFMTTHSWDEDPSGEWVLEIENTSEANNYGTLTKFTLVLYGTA
T2 sequence (P09958 108-794): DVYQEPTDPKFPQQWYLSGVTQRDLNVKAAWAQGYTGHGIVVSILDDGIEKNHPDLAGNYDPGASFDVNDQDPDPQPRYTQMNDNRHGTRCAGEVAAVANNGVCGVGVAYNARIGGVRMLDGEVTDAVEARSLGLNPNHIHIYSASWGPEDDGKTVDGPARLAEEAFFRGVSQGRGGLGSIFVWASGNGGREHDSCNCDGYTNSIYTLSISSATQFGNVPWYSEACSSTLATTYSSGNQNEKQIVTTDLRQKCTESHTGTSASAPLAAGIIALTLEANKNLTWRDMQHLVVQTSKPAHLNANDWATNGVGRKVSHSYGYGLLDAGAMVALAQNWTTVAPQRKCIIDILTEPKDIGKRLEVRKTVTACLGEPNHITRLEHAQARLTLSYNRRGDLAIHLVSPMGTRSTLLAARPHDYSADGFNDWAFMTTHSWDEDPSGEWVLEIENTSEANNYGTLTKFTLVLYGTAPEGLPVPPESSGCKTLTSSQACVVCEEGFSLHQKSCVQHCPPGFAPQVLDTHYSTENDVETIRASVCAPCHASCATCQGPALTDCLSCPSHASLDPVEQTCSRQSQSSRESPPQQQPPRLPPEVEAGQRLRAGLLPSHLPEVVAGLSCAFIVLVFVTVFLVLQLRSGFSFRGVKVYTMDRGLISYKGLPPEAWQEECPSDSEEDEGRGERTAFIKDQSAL

With `CN1CCCN(c2ncc(Oc3cc(CN4CCC(CC(=O)O)CC4)cc(-c4cc(F)cc(Cl)c4)n3)cn2)CC1` [Example 374, 2-(1-((2-(3-chloro-5-fluorophenyl)-6-((2-(4-methyl-1,4-diazepan-1-yl)pyrimidin-5-yl)oxy)pyridin-4-yl)methyl)piperidin-4-yl)acetic acid], the “furin enzyme pIC50” value in assay [1] is on record as 7.9. For the same molecule, the EC50 in assay [2] was 158 nM.
Take `CC(C)N(c1cnc(N2CCN(C)CC2)nc1)c1cc(CN2CCC(CC(=O)O)CC2)cc(-c2cc(Cl)cc(Cl)c2)n1` [Example 375, 2-(1-((2-(3,5-Dichlorophenyl)-6-(isopropyl(2-(4-methylpiperazin-1-yl)pyrimidin-5-yl)amino)pyridin-4-yl)methyl)piperidin-4-yl)acetic acid]: the “furin enzyme pIC50” value in assay [1] is given as 7.9. Also, the EC50 in assay [2] is 251 nM.
Regarding `CN1CCN(c2ncc(Oc3cc(-c4cc(Cl)cc(Cl)c4)cc(CN4CCC(CC(=O)O)CC4)c3F)cn2)CC1` [Example 376, 2-(1-((3′,5′-dichloro-4-fluoro-5-((2-(4-methylpiperazin-1-yl)pyrimidin-5-yl)oxy)-[1,1′-biphenyl]-3-yl)methyl)piperidin-4-yl)acetic acid], the “furin enzyme pIC50” value in assay [1] came out at 8.7. Also, the EC50 in assay [2] was 25.1 nM.
Regarding `CN1CCN(c2ccc(Oc3nc(-c4cc(Cl)cc(Cl)c4)cc(CN4CCC(CC(=O)O)CC4)c3F)cn2)CC1` [Example 377, 2-(1-((6-(3,5-Dichlorophenyl)-3-fluoro-2-((6-(4-methylpiperazin-1-yl)pyridin-3-yl)oxy)pyridin-4-yl)methyl)piperidin-4-yl)acetic acid, 4 hydrochloride], the “furin enzyme pIC50” value in assay [1] is 8.6. In assay [2], the EC50 is 25.1 nM.
Regarding `CN1C2CCC1CN(c1ncc(Oc3nc(-c4cc(Cl)cc(Cl)c4)cc(CN4CCC(CC(=O)O)CC4)c3F)cn1)C2` [Example 378, 2-(1-((6-(3,5-dichlorophenyl)-3-fluoro-2-((2-(8-methyl-3,8-diazabicyclo[3.2.1]octan-3-yl)pyrimidin-5-yl)oxy)pyridin-4-yl)methyl)piperidin-4-yl)acetic acid], in assay [1] (read-out: furin enzyme pIC50 (converted)), the IC50 was 2 nM. In assay [2], the EC50 is 6.31 nM.
On to `CN1CCN(c2ncc(Oc3nc(-c4cc(Cl)cc(Cl)c4)cc(CN4CCC(CC(=O)O)CC4)c3F)cn2)CC1` [Example 379, 2-(1-((6-(3,5-dichlorophenyl)-3-fluoro-2-((2-(4-methylpiperazin-1-yl)pyrimidin-5-yl)oxy)pyridin-4-yl)methyl)piperidin-4-yl)acetic acid], for which, in assay [1], the “furin enzyme pIC50” value is given as 8.7. For the same molecule, in assay [2], the EC50 was 20 nM.
The matching figures for `Cc1nc(N2CCN(C)CC2)ncc1Oc1nc(-c2cc(Cl)cc(Cl)c2)cc(CN2CCC(CC(=O)O)CC2)c1F` [Example 380, 2-(1-((6-(3,5-dichlorophenyl)-3-fluoro-2-((4-methyl-2-(4-methylpiperazin-1-yl)pyrimidin-5-yl)oxy)pyridin-4-yl)methyl)piperidin-4-yl)acetic acid]: 9.6 and 63.1 nM.
The matching figures for `CC(=O)NCC1CCN(Cc2cc(-c3cc(Cl)cc(Cl)c3)nc(Oc3cnc(N4CCN(CCC(C)C(=O)O)CC4)nc3)c2F)CC1` (centres unmarked) [Example 381, 4-(4-(5-((4-((4-(acetamidomethyl)piperidin-1-yl)methyl)-6-(3,5-dichlorophenyl)-3-fluoropyridin-2-yl)oxy)pyrimidin-2-yl)piperazin-1-yl)-2-methylbutanoic acid]: 8.9 and 10 nM.
With `O=C(O)CC1CCN(Cc2cc(-c3cc(Cl)cc(Cl)c3)nc(Oc3cnc(N4CC5CCC(C4)N5)nc3)c2F)CC1` [Example 382, 2-(1-((2-((2-(3,8-diazabicyclo[3.2.1]octan-3-yl)pyrimidin-5-yl)oxy)-6-(3,5-dichlorophenyl)-3-fluoropyridin-4-yl)methyl)piperidin-4-yl)acetic acid], in assay [1], the “furin enzyme pIC50” value is recorded as 8.6. For the same molecule, the EC50 in assay [2] was 6.31 nM.
For `Cc1nc(N2CCN(C)CC2)ccc1Oc1nc(-c2cc(Cl)cc(Cl)c2)cc(CN2CCC(CC(=O)O)CC2)c1F` [Example 383, 2-(1-((6-(3,5-dichlorophenyl)-3-fluoro-2-((2-methyl-6-(4-methylpiperazin-1-yl)pyridin-3-yl)oxy)pyridin-4-yl)methyl)piperidin-4-yl)acetic acid], in assay [1], the “furin enzyme pIC50” value is listed as 8.4. Besides, the EC50 in assay [2] was 63.1 nM.
In the case of `CN1CCN(c2ccc(Oc3nc(-c4cc(Cl)cc(Cl)c4)cc(CN4CCC(CC(=O)O)CC4)c3F)nn2)CC1` [Example 384, 2-(1-((6-(3,5-dichlorophenyl)-3-fluoro-2-((6-(4-methylpiperazin-1-yl)pyridazin-3-yl)oxy)pyridin-4-yl)methyl)piperidin-4-yl)acetic acid], the “furin enzyme pIC50” value in assay [1] came to 8.4. Further, in assay [2], the EC50 was 25.1 nM.
The corresponding values for `COC(=O)CCN1CCN(c2ccc(Oc3cc(CN4CCC(CNC(C)=O)CC4)cc(-c4cc(Cl)cc(Cl)c4)n3)cn2)CC1` [Example 385, Methyl 3-(4-(5-((4-((4-(Acetamidomethyl)piperidin-1-yl)methyl)-6-(3,5-dichlorophenyl)pyridin-2-yl)oxy)pyridin-2-yl)piperazin-1-yl)propanoate] are 8.4 and 12.6 nM.
Take `Cc1c(CN2CCC(CC(=O)O)CC2)cc(-c2cc(Cl)cc(Cl)c2)nc1Oc1ccc(N2CCN(C)CC2)nc1` [Example 386, 2-(1-((6-(3,5-Dichlorophenyl)-3-methyl-2-((6-(4-methylpiperazin-1-yl)pyridin-3-yl)oxy)pyridin-4-yl)methyl)piperidin-4-yl)acetic acid, 4 hydrochloride]: in assay [1], the “furin enzyme pIC50” value is given as 8.4. Moreover, the EC50 in assay [2] was 10 nM.
The corresponding values for `O=C(O)CC1CCN(Cc2cc(Oc3cnc(N4CCN(Cc5cnn[nH]5)CC4)nc3)nc(-c3cc(Cl)cc(Cl)c3)c2)CC1` [Example 387, 2-(1-((2-((2-(4-((1H-1,2,3-Triazol-5-yl)methyl)piperazin-1-yl)pyrimidin-5-yl)oxy)-6-(3,5-dichlorophenyl)pyridin-4-yl)methyl)piperidin-4-yl)acetic acid] are 8.5 and 25.1 nM.
`CN1CCN(c2ncc(N(C)c3cc(CN4CCC(CC(=O)O)CC4)cc(-c4cc(Cl)cc(Cl)c4)n3)cn2)CC1` [Example 388, 2-(1-((2-(3,5-Dichlorophenyl)-6-(methyl(2-(4-methylpiperazin-1-yl)pyrimidin-5-yl)amino)pyridin-4-yl)methyl)piperidin-4-yl)acetic acid, 4 hydrochloride]: in assay [1], the “furin enzyme pIC50” value came out at 8.1. Further, the EC50 in assay [2] was 50.1 nM.
For the molecule `CCN(c1cnc(N2CCN(C)CC2)nc1)c1cc(CN2CCC(CC(=O)O)CC2)cc(-c2cc(Cl)cc(Cl)c2)n1` [Example 389, 2-(1-((2-(3,5-Dichlorophenyl)-6-(ethyl(2-(4-methylpiperazin-1-yl)pyrimidin-5-yl)amino)pyridin-4-yl)methyl)piperidin-4-yl)acetic acid], in assay [1], the “furin enzyme pIC50” value was 8.2. Moreover, the EC50 in assay [2] was 63.1 nM.
As to `CC(=O)NCC1CCN(Cc2cc(Oc3cnc(N4CCN(CCC(N)=O)CC4)cn3)nc(-c3cc(Cl)cc(Cl)c3)c2)CC1` [Example 391, 3-(4-(5-((4-((4-(acetamidomethyl)piperidin-1-yl)methyl)-6-(3,5-dichlorophenyl)pyridin-2-yl)oxy)pyrazin-2-yl)piperazin-1-yl)propanamide], the “furin enzyme pIC50” value in assay [1] is reported as 8.7. In addition, the EC50 in assay [2] was 6.31 nM.
The matching figures for `CCC(=O)NCC1CCN(Cc2cc(Oc3cnc(N4CCN(CCC(C)C(=O)O)CC4)cn3)nc(-c3cc(Cl)cc(Cl)c3)c2)CC1` (centres unmarked) [Example 392, 4-(4-(5-((6-(3,5-dichlorophenyl)-4-((4-(propionamidomethyl)piperidin-1-yl)methyl)pyridin-2-yl)oxy)pyrazin-2-yl)piperazin-1-yl)-2-methylbutanoic acid]: 9 and 15.8 nM.
For the molecule `CC(=O)NCC1CCN(Cc2cc(Oc3cnc(N4CCN(C(C)CO)CC4)cn3)nc(-c3cc(Cl)cc(Cl)c3)c2)CC1` (centres unmarked) [Example 393, N-((1-((2-(3,5-dichlorophenyl)-6-((5-(4-(1-hydroxypropan-2-yl)piperazin-1-yl)pyrazin-2-yl)oxy)pyridin-4-yl)methyl)piperidin-4-yl)methyl)acetamide], in assay [1], the “furin enzyme pIC50” value stood at 9.2. Moreover, the EC50 in assay [2] is 2.51 nM.
In the case of `CNC(=O)NCC1CCN(Cc2cc(Oc3cnc(N4CCN(C)CC4)cn3)nc(-c3cc(Cl)cc(Cl)c3)c2)CC1` [Example 394, 1-((1-((2-(3,5-dichlorophenyl)-6-((5-(4-methylpiperazin-1-yl)pyrazin-2-yl)oxy)pyridin-4-yl)methyl)piperidin-4-yl)methyl)-3-methylurea], the “furin enzyme pIC50” value in assay [1] was 9. For the same molecule, the EC50 in assay [2] was 6.31 nM.
The corresponding values for `COC(=O)NCC1CCN(Cc2cc(Oc3cnc(N4CCN(C)CC4)cn3)nc(-c3cc(Cl)cc(Cl)c3)c2)CC1` [Example 395, methyl ((1-((2-(3,5-dichlorophenyl)-6-((5-(4-methylpiperazin-1-yl)pyrazin-2-yl)oxy)pyridin-4-yl)methyl)piperidin-4-yl)methyl)carbamate] are 9.2 and 31.6 nM.
Turning to `CC(=O)NCC1CCN(Cc2cc(Oc3cnc(N4CCN(CCC(C)C(=O)O)CC4)cn3)nc(-c3cc(Cl)cc(Cl)c3)c2)CC1` (centres unmarked) [Example 396, 4-(4-(5-((4-((4-(acetamidomethyl)piperidin-1-yl)methyl)-6-(3,5-dichlorophenyl)pyridin-2-yl)oxy)pyrazin-2-yl)piperazin-1-yl)-2-methylbutanoic acid], the “furin enzyme pIC50” value in assay [1] was 10.3. Moreover, the EC50 in assay [2] is 10 nM.

Source of the values: patent US11773078B2, “Furin inhibitors” (Glaxosmithkline Intellectual Property Development Limited, priority 2018, dated 2023).
